Where two headings read alike, the source gives them in different places.
How the values were obtained:
[1] = tested on: SKBR3 HER2 high expressing tumor cell line / RAW-Blue cells; assay: RAW-Blue co-culture assay with SKBR3 tumor cells (HER2 ISACs); format: cell-based, human
Method: (§1) RAW-Blue™ cells (Invivogen, San Diego, CA) were co-cultured with human tumor cells with different levels of HER2 expression level at 1:1 E:T ratio with total number of 1 million cells per well in the 96 wells plate. Different concentration of small molecule TLR7 agonist and conjugated ISACs, (Immune Stimulating Antibody Conjugates), were added to the co-culture cell medium. After 24 h incubation, the levels of NF-kB-induced SEAP from the RAW-Blue™ cells were determined by Quanti-Blue detection reagents (Invivogen, San Diego, CA) with readings at OD 655 nm. The dose-response curves were generated using Prism Software.

[2] = tested on: SKOV3 HER2 high expressing tumor cell line / RAW-Blue cells; assay: RAW-Blue co-culture assay with SKOV3 tumor cells; format: cell-based, human; settings: conjugated to anti-HER2 antibody; data not shown
Method: as §1

hTLR7 = biological target: T1, hTLR7 (Homo sapiens, UniProt Q9NYK1); assay: HEK-Blue hTLR7 reporter assay (NF-kB-induced SEAP, Quanti-Blue); format: cell-based
T1 construct: expressed in transfected cells; host or cells: HEK-Blue hTLR7 reporter cell line
T1 sequence (Q9NYK1 27-1049): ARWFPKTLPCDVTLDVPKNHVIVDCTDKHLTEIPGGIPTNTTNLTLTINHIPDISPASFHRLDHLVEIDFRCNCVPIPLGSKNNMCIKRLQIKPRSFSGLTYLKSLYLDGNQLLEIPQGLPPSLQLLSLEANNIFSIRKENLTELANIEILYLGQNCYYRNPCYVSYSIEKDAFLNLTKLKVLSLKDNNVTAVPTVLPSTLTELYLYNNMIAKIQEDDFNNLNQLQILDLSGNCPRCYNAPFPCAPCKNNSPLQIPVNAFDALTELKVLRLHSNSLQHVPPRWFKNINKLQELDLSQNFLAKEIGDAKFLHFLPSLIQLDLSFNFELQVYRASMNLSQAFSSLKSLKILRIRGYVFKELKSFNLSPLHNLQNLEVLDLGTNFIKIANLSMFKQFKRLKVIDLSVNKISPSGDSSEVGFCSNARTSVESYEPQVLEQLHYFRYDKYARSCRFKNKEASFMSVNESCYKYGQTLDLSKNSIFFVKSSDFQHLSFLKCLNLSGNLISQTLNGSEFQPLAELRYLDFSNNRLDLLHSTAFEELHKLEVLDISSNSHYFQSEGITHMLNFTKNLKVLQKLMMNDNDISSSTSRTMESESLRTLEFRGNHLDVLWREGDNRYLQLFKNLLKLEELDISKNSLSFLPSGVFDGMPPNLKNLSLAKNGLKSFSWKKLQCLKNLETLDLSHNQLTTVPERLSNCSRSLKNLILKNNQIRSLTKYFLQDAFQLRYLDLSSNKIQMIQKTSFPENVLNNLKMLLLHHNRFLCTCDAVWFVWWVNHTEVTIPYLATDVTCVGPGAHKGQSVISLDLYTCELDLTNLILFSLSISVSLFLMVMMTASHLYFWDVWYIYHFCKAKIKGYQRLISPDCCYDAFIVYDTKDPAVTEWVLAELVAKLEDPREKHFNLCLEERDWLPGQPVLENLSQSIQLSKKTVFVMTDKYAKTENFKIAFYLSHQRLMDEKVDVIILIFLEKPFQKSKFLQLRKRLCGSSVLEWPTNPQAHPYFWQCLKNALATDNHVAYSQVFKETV
Method: HEK-Blue™ hTLR7 cells were incubated in HEK-Blue™ Detection medium and stimulated with increasing concentrations of TLR7 or TLR8 or TLR7/8 agonists. […] The EC50 was determined from dose-response curve using Prism Software.

TLR8 = biological target: T2, TLR8 (Homo sapiens, UniProt Q9NR97); assay: TLR8 reporter assay; format: cell-based
T2 sequence (Q9NR97 27-1041): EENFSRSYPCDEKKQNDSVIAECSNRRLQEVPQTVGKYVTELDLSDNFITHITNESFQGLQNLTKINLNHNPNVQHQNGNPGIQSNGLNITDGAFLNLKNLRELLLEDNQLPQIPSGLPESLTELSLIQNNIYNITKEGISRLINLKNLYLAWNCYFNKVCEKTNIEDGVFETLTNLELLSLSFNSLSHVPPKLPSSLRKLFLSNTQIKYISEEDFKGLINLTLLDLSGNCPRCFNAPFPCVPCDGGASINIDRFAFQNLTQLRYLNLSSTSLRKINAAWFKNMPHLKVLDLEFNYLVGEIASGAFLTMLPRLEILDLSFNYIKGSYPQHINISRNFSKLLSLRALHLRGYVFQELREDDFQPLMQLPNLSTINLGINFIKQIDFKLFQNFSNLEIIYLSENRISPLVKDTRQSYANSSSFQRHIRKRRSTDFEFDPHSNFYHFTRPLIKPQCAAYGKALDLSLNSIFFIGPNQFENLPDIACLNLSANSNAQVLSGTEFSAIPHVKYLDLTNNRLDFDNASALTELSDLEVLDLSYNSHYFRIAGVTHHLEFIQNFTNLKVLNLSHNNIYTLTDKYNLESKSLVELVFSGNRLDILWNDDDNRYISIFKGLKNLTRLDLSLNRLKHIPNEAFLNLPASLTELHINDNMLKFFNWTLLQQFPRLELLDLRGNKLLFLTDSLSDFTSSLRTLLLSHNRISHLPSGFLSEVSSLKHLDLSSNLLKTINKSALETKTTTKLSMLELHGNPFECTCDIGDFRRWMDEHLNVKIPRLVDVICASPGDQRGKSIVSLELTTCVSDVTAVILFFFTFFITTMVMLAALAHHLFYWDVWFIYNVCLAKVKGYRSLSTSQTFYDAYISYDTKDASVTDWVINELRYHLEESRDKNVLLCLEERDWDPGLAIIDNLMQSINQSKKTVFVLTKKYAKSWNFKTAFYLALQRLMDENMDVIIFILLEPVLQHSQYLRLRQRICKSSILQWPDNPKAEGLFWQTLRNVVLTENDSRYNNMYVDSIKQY

[3] = Table 12, TLR7 agonists attached to a linker, read-out: TLR Agonist Payload + Linkers EC50
[4] = Table 15, drug linker, read-out: TLR Agonist + Linker (DL) - EC50
[5] = Table 15, pAF containing final metabolite, read-out: TLR Agonist + Linker + nnAA (DL-pAF) - EC50
[6] = Table 19, TLR7, drug-linkers with PEG shielding, read-out: EC50
[7] = Table 11, TLR7 activities, read-out: EC50

Compound | tumor dependent ISAC activity [1] | EC50 (hTLR7; [3]) | EC50 (hTLR7; [4]) | EC50 (hTLR7; [5]) | EC50 (hTLR7; [6]) | other results
CCCCOc1nc(N)c2[nH]c(=O)n(Cc3ccc(CNC(=O)CCOCCON)cc3)c2n1 [AXC-863] | potent dose dependent activities only in the presence of HER2 high expressing tumor cell lines | 864 nM | 864 nM | 287 nM | 320 nM | tumor dependent ISAC activity [2]: potent dose dependent activities only in the presence of HER2 high expressing tumor cell lines
CCCCOc1nc(N)c2[nH]c(=O)n(Cc3ccc(CN4CCC(CCNC(=O)CON)CC4)cc3)c2n1 [AXC-879, N-(2-(1-(4-((6-amino-2-butoxy-8-oxo-7H-purin-9(8H)-yl)methyl)benzyl)piperidin-4-yl)ethyl)-2-(aminooxy)acetamide] | highest HER2 dependent TLR7 activities | 151 nM | 151 nM | 90 nM | – | TLR7 activity (comparison in words) (hTLR7): highest potency among different TLR-agonist (payload) linkers
CCCCOc1nc(N)c2[nH]c(=O)n(Cc3ccc(CN4CCC(CCNC(=O)c5cc(F)c(N)c(F)c5)CC4)cc3)c2n1 [AXC-887, 4-amino-N-(2-(1-(4-((6-amino-2-butoxy-8-oxo-7H-purin-9(8H)-yl)methyl)benzyl)piperidin-4-yl)ethyl)-3,5-difluorobenzamide] | – | – | – | – | – | EC50 (TLR8): 3730 nM; EC50 (hTLR7; [7]): 4.6 nM; EC50 (hTLR7; text to Table 11, TLR7, read-out: EC50): < 10 nM
CCCCOc1nc(N)c2[nH]c(=O)n(Cc3ccc(CN4CCC(C5CCN(C(=O)CON)CC5)CC4)cc3)c2n1 [AXC-901, 6-amino-9-(4-((1′-(2-(aminooxy)acetyl)-4,4′-bipiperidin-1-yl)methyl)benzyl)-2-butoxy-7H-purin-8(9H)-one] | highest HER2 dependent TLR7 activities | – | – | – | – | TLR7 activity (comparison in words) (hTLR7): highest potency among different payload linkers; EC50 (hTLR7; Table 13, TLR7, read-out: EC50): 48 nM
CCCCOc1nc(NC(C)=O)c2[nH]c(=O)n(Cc3ccc(CN4CCC(C5CCN(C(=O)CON)CC5)CC4)cc3)c2n1 [AXC-981, N-(9-(4-((1′-(2-(aminooxy)acetyl)-4,4′-bipiperidin-1-yl)methyl)benzyl)-2-butoxy-8-oxo-8,9-dihydro-7H-purin-6-yl)acetamide] | – | – | – | – | 10.1 nM | –
CCCCOc1nc(NC(=O)CCOCCOCCOC)c2[nH]c(=O)n(Cc3ccc(CN4CCC(CCN)CC4)cc3)c2n1 [AXC-982, N-(9-(4-((4-(2-aminoethyl)piperidin-1-yl)methyl)benzyl)-2-butoxy-8-oxo-8,9-dihydro-7H-purin-6-yl)-3-(2-(2-methoxyethoxy)ethoxy)propanamide] | – | – | – | – | 19.1 nM | –
CCCCOc1nc(NC(=O)CCOCCOCCOC)c2[nH]c(=O)n(Cc3ccc(CN4CCC(CCNC(=O)CON)CC4)cc3)c2n1 [AXC-983, N-(9-(4-((4-(2-(2-(aminooxy)acetamido)ethyl)piperidin-1-yl)methyl)benzyl)-2-butoxy-8-oxo-8,9-dihydro-7H-purin-6-yl)-3-(2-(2-methoxyethoxy)ethoxy)propanamide] | – | – | – | – | 53.3 nM | –
CCCCNc1nc(N)c2[nH]c(=O)n(Cc3ccc(OCCN(C)C)nc3)c2n1 [DSR-6434, reference compound] | – | 14.8 nM | 15 nM | 11 nM | 14 nM | EC50 (hTLR7; Table 10, read-out: TLR7 EC50): 9.2 nM; EC50 (hTLR7; [7]): 15.8 nM; EC50 (hTLR7; Table 13, TLR7, read-out: EC50): 9 nM; EC50 (hTLR7; Table 14, read-out: TLR7 EC50): 10.5 nM
CCCN(CCC)C(=O)C1=Cc2ccc(-c3ccc(C(=O)N4CCCC4)cc3)cc2N=C(N)C1 [Motolimod, reference compound] | – | – | – | – | – | EC50 (TLR8): 1430 nM

From US20230302150A1, “ANTIBODY-TLR AGONIST CONJUGATES, METHODS AND USES THEREOF” (Ambrx, Inc., priority 2020, published 2023)
